Measured values: patent publication US7557133B2, “Caspase inhibitors containing isoxazoline ring” (LG Life Sciences Ltd., priority 2003, dated 2009)

Legend:
foot edema = test: Antiphlogistic effect in rats (carrageenan foot edema); assay type: in vivo, rat; conditions: 3 hours after carrageenan
Method: Male SD rats (6 weeks, Orient) were kept under the conditions of 22 °C, 55% of relative humidity, and light-darkness cycle of 12 hours. Food and water were supplied ad libitum. Before the induction of edema, the foot volume of each rat was measured by plethysmometer. Before the induction of edema, vehicle (a mixture of PEG400: ethanol:Tween80=15:7.5:2.5 was diluted by ten times with phosphate buffer) wherein the test compound is dissolved or the vehicle alone was orally administered into the rats. Carrageenan (gamma) was dissolved in the concentration of 1% in saline, and subcutaneously injected into the right rear foot of the rats in the dosage of 100 μl. After 3 hours, the right foot volume was measured again by plethysmometer. The effect of the test compound was shown by edema inhibition (%) (see Table 3). The edema inhibition (%) was calculated according to the following Equation 2. Edema Inhibition (%)=100×(Average of the increased foot volume in the vehicle-administered group−Increased foot volume in the test compound-administered group)/Average of the increased foot volume in the vehicle-administered group Equation 2

caspase-8 = target: T1, caspase-8 (Homo sapiens, UniProt Q14790); test: Caspase-8 inhibitory effect (fluorescent substrate AcDEVD-AFC); assay type: biochemical
T1 construct: p10 and p20 subunits (Thornberry, N. A. et al, Nature, 1992, 356, 768) were expressed in E. coli; made in house; host or cells: E. coli
In short: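 E. coli–expressed p10/p20 caspase-8, 2.1 nM, with 50 μM Ac-DEVD-AFC at 25 °C in 50 mM HEPES pH 7.50, sucrose, CHAPS, NaCl, EDTA, 10 mM DTT over various inhibitor concentrations. Initial rates by fluorescence (ex 405 / em 505); Ki from Lineweaver-Burk plot, Kobs from time-course cleavage equation.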

[1] = system: Jurkat cell (ATCC TIB-152); test: Jurkat cell apoptosis by Fas antibody, WST-1 method; assay type: cell-based; conditions: for IC50: apoptosis using Fas antibody, WST-1
In short: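 Jurkat cells (ATCC TIB-152) induced to apoptosis with Fas antibody in the presence of inhibitor. Viable cells quantified by WST-1 colour change, absorbance at 440 nm.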

caspase-1 = target: T2, caspase-1 (Homo sapiens, UniProt P29466); test: Caspase-1 inhibitory effect (fluorescent substrate AcYVAD-AFC); assay type: biochemical; conditions: pH 7.5; 25° C., 50 μM AcYVAD-AFC, 10 nM caspase-1; read-out: Caspase-1 Kobs/[I] (converted)
T2 construct: p10 and p20 subunits (Thornberry, N. A. et al, Nature, 1992, 356, 768) were expressed in E. coli; made in house; host or cells: E. coli
T2 sequence (P29466 120-297 limits assumed): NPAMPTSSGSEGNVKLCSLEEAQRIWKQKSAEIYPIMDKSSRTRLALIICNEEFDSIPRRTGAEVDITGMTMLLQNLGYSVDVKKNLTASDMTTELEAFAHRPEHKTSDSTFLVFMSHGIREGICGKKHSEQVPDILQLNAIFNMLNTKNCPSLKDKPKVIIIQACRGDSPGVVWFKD
T2 sequence (P29466 317-404 limits assumed): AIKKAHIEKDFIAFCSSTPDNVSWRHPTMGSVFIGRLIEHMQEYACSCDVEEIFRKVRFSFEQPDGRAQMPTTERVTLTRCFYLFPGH
Method: Caspase-1 and caspase-8 known as cysteine proteases in the form of α2β2 were expressed, purified, and activated by modifying a method known in Thornberry, N. A. et al, Nature, 1992, 356, 768. Thornberry, N. A. Methods in Enzymology, 1994, 244, 615. Walker, N. P. C. et al. Cell, 1994, 78, 343, and caspase-9 was also purified by a similar method, and the inhibitory activity against them was tested. Briefly describing, p10 and p20 subunits (Thornberry, N. A. et al, Nature, 1992, 356, 768) were expressed in E. coli and purified by nickel column and anionic exchange chromatography to give caspase-1, caspase-8 and caspase-9. The fluorescent substrate AcYVAD-AFC for thus obtained caspase-1, AcDEVD-AFC for caspase-8, and AcLEHD-AFC for caspase-9 were used for determining specific activity of the synthesized inhibitors. The enzyme reaction was carried out at 25° C. with various concentrations of the inhibitors in a buffer solution containing 50 mM HEPES(pH 7.50), 10% (w/v) sucrose, 0.1% (w/v) CHAPS, 100 mM NaCl, 1 mM EDTA, and 10 mM DTT in the presence of 50 μM AcYVAD-AFC for 10 nM caspase-1, 50 μM AcDEVD-AFC for 2.1 nM caspase-8, and 150 μM AcLEHD-AFC for 200 nM caspase-9. The inhibitory constants Ki and Kobs of the inhibitors were determined by measuring the reaction velocity with the time lapse using a fluorescent spectrometer and by obtaining the initial rate constant. Ki was calculated from the Lineweaver Burk Plot, and Kobs from the following Equation 1. Kobs=−ln(1−At/Aoo)/t Equation 1
At means cleavate rate (%) at time t, and
Aoo means the maximum cleavage rate (%).
Spectra MAX GeminiXS Fluorescent Spectrometer of Molecular Device Co. was used at the excitation wavelength of 405 nm and the emission wavelength of […].

[2] = Solubility (pH = 7.44 phosphate); assay type: physicochemical
hepatic cell apoptosis = test: Inhibitory effect against apoptosis during the bile stagnation in SD rats (TUNEL staining); assay type: in vivo, rat; conditions: for TUNEL positive cells/field: BDL rats
Method: Male Spargue-Dawley rats (6 weeks, Korea Biolink) were kept under the conditions of 22 °C, 55% of relative humidity, and light-darkness cycle of 12 hours. Food and water were supplied ad libitum. For the ligation of biliary duct, the rats were anesthetized by inhalation of 1% halothane, abdomen of the rats were cut open, the distal and proximal biliary ducts were ligated, the part between the ligation sites were cut, 2 ml of saline was injected, and sutured.
Test compound (Iii) was orally administered in a dosage of 3 mg/kg or 10 mg/kg twice a day. That is, the compound was dissolved in a cosolvent (PEG400:ethanol:Tween80=15:7.5:2.5), diluted with phosphate buffer (pH 7.4) by five times, and administered. To the control group was administered the solution without the test compound. The administration was made for 1 week after 1 week from the ligation of biliary duct.
The test compound (Iii) was administered to the SD rats whose biliary ducts were ligated according to the procedure as Step 1 of Experiment 3. After 2 weeks from the operation, the rats were sacrificed. The livers were fixed by 10% neutral formalin and a paraffin section of 5 μm thickness was prepared. TUNEL staining was carried out using ApopTag Peroxidase In Situ Apoptosis Detection kit (Chemicon) according to the manufacturer's instruction. More than 10 sites of the TUNEL stained liver tissue were photographed in 200 magnifications without any overlap, of which result was shown in FIG. 2. The number of cells suffering apoptosis in each test group was counted and represented in the following Table 2. In the following table, the Sham operation means the case where the biliary duct was exposed but not ligated, and the BDL operation means the case where only the vehicle was administered after the ligation of biliary duct.

T1 sequence (Q14790 217-374 limits assumed, species assumed): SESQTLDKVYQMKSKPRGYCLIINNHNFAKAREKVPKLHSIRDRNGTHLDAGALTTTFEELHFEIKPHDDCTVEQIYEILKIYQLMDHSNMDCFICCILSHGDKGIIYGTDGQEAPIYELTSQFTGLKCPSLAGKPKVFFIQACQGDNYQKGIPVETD
T1 sequence (Q14790 385-479 limits assumed, species assumed): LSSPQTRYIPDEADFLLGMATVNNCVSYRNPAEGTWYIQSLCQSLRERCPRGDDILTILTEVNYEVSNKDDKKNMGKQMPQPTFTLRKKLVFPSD

increased inhibitory activity against caspase-8 compared with LB84068MP (caspase-8): ≥ 10 times
kinact/KI (caspase-8; pH 7.5, 25° C., 50 μM AcDEVD-AFC, 2.1 nM caspase-8, read-out: Caspase-8 Kobs/[I] (converted)): 217000 M⁻¹ s⁻¹
IC50 ([1]; Homo sapiens, Jurkat): 100 nM
IC50 [1]: ≤ 100 nM
kinact/KI (caspase-1): 18300 M⁻¹ s⁻¹
solubility compared with LB84068MP [2]: improved solubility
SMILES: CC(C)[C@@]1(C(=O)NC(CC(=O)O)C(=O)CF)CC(c2nccc3ccccc23)=NO1 (stereo partly drawn) [Iii, 5-Fluoro-3-({[(5R)-5-isopropyl-3-(1-isoquinolinyl)-4,5-dihydro-5-isoxazolyl]carbonyl}amino)-4-oxopentanoic acid]
Edema inhibition effect (%) Average (foot edema; 30 mg/kg oral): 20.7%
Edema inhibition effect (%) Average (foot edema; 100 mg/kg oral): 22.7%
increased inhibitory activity against Jurkat cell compared with LB84068MP [1]: ≥ 10 times
TUNEL positive cells/field (hepatic cell apoptosis; 3 mg/kg orally twice a day for 1 week): 4.12 ± 1.3 TUNEL positive cells/field
TUNEL positive cells/field (hepatic cell apoptosis; 10 mg/kg orally twice a day for 1 week): 5.66 ± 1.34 TUNEL positive cells/field
inhibition of apoptosis (TUNEL staining) (hepatic cell apoptosis; bile stagnation model, rats): 75%
